{
  "source": "ChEMBL document CHEMBL5465560",
  "about": "“Selectivity Literature for EUbOPEN Chemogenomic Library” (2024)",
  "key": {"[1]": {"target": "T1, Ephrin type-B receptor 3 (Homo sapiens) (UniProt P54753)", "T1 sequence (whole entry)": "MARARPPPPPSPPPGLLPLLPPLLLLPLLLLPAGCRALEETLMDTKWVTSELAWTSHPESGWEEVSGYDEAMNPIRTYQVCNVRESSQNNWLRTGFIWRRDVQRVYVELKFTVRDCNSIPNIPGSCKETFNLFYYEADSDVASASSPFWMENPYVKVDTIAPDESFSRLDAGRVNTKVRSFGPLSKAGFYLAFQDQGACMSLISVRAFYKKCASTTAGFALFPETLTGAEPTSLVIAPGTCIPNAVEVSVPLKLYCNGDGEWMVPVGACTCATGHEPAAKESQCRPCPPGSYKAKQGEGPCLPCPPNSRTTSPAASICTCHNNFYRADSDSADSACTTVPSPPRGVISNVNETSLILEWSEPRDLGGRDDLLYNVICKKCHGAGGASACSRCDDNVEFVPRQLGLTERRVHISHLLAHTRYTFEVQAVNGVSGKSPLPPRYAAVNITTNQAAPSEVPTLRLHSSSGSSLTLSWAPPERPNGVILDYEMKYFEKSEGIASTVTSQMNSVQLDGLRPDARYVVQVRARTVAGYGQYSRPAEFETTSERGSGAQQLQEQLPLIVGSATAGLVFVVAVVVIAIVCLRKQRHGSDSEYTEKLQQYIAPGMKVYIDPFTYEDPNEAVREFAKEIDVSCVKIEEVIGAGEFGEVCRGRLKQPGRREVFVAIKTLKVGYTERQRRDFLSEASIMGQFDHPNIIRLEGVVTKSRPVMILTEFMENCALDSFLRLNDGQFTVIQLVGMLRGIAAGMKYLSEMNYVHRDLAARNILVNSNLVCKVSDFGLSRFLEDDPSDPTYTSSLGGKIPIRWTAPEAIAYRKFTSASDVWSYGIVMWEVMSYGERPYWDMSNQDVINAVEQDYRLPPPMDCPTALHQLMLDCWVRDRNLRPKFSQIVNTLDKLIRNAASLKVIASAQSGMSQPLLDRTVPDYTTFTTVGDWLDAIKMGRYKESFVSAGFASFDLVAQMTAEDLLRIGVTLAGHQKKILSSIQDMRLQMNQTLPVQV", "experiment": "Selectivity interaction (KinomeScan (DiscoverX)) EUB0000618a EPHB3", "settings": "at 10 µM"}, "[2]": {"target": "T2, Dual specificity mitogen-activated protein kinase kinase 4 (Homo sapiens) (UniProt P45985)", "T2 sequence (whole entry)": "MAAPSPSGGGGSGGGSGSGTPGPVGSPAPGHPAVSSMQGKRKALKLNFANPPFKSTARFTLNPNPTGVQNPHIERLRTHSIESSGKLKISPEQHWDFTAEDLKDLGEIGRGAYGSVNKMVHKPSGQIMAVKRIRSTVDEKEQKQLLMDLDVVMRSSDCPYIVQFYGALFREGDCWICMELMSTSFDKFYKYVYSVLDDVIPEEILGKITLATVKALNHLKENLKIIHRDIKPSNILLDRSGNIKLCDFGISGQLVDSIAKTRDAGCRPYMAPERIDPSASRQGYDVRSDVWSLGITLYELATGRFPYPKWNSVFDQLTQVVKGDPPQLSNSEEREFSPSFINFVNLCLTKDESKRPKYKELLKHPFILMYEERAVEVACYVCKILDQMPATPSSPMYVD", "experiment": "Selectivity interaction (KinomeScan (DiscoverX)) EUB0000607a MAP2K4", "settings": "at 10 µM"}, "[3]": {"target": "Serine/threonine-protein kinase PLK1 (Homo sapiens, UniProt P53350)", "sequence (P53350 whole entry)": "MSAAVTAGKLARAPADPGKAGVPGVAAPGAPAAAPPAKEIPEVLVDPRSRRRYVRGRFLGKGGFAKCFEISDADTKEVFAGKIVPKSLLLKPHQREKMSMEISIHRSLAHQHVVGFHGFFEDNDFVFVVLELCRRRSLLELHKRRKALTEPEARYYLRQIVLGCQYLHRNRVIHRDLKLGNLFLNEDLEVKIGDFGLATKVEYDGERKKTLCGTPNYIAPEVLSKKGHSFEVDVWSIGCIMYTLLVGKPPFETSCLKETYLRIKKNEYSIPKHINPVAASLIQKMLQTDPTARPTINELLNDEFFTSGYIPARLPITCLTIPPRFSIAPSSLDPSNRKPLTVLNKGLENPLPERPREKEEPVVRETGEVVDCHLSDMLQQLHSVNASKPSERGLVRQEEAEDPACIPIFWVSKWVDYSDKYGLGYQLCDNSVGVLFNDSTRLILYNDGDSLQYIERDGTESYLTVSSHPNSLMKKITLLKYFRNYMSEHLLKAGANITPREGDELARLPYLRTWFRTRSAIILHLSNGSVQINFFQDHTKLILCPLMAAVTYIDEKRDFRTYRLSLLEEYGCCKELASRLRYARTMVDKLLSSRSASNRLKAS", "experiment": "Selectivity interaction (SelectScreen profiling (Invitrogen)) EUB0000607a PLK1", "settings": "at 2 µM"}, "[4]": {"target": "T3, Serine/threonine-protein kinase Nek1 (Homo sapiens) (UniProt Q96PY6)", "T3 sequence (whole entry)": "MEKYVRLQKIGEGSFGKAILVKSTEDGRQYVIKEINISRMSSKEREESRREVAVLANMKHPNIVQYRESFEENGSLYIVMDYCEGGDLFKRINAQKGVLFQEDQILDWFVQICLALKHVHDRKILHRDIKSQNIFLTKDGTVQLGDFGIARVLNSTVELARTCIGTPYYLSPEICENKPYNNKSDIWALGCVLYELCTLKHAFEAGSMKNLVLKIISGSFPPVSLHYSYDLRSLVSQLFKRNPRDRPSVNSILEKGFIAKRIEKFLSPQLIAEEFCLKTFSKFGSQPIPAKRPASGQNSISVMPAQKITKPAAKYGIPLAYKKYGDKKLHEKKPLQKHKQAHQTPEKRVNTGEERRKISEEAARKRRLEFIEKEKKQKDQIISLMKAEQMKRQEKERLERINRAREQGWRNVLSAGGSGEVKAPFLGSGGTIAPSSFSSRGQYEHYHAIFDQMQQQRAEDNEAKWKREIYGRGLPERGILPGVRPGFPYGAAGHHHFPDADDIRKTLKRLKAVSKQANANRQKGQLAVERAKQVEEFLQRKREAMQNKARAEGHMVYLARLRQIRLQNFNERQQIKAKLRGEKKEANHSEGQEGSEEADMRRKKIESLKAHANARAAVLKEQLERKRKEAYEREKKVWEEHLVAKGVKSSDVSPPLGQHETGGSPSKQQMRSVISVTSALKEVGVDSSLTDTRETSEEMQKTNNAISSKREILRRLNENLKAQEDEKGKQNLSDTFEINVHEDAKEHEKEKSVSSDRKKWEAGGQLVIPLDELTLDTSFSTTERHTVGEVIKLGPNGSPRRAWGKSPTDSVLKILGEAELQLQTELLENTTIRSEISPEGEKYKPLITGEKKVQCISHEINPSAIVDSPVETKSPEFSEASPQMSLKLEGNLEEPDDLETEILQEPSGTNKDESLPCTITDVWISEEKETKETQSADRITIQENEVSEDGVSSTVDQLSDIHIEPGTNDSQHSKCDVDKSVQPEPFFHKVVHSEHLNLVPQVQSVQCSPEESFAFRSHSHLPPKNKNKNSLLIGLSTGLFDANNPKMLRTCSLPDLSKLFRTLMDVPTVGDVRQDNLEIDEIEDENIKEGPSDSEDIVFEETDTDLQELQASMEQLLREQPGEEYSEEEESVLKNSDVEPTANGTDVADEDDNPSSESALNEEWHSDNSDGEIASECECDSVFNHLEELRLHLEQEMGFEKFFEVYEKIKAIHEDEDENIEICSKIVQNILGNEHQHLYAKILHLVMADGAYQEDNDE", "experiment": "Selectivity interaction (KinomeScan (DiscoverX)) EUB0001619a NEK1", "settings": "at 1 µM"}, "[5]": {"target": "Misshapen-like kinase 1 (Homo sapiens, UniProt Q8N4C8)", "sequence (Q8N4C8 whole entry, looked up)": "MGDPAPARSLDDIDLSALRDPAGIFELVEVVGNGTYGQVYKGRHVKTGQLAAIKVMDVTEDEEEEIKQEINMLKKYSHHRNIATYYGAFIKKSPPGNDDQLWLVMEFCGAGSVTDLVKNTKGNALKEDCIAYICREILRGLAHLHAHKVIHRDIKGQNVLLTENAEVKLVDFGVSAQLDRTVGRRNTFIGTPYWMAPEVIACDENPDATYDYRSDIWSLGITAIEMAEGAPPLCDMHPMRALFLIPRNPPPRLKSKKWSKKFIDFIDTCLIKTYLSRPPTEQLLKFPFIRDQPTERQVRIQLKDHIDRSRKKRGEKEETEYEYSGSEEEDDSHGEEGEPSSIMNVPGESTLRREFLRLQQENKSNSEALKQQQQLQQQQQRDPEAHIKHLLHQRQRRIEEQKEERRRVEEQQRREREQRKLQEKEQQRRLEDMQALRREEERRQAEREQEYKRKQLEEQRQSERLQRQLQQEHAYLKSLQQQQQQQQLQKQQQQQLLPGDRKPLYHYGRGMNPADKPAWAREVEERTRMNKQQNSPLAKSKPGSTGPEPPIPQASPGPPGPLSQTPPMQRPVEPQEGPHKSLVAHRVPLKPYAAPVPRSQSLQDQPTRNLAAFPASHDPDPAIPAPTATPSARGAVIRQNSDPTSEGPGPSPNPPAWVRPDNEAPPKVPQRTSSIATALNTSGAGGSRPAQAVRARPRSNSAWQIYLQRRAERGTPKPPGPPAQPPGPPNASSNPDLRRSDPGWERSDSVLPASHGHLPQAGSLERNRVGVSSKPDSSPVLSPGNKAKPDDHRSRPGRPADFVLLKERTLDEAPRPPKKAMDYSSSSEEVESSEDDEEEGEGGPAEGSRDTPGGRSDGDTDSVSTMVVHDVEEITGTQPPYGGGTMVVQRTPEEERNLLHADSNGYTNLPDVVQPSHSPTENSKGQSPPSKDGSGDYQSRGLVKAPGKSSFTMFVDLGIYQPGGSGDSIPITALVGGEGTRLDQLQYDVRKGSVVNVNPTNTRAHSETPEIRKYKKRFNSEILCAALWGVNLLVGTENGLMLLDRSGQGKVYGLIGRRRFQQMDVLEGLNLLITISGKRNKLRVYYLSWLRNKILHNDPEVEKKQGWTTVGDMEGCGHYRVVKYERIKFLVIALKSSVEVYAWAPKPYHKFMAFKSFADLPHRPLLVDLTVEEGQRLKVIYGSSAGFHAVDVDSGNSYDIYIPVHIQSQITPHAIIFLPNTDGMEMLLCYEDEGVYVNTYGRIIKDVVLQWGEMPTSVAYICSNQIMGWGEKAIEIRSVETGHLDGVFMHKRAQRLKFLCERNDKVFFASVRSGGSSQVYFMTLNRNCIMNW", "settings": "at 10 µM"}},
  "data": [
    {"smiles": "O[C@H]1CC[C@H](Nc2ncc3nc(Nc4c(F)cc(F)cc4F)n([C@H]4CCOC4)c3n2)CC1", "values": [
      {"measurement": "% of control", "setting": "[1]", "value": 84, "unit": "%"}
    ]},
    {"smiles": "CNC(=O)Nc1ccc(-c2nc(N3CC4CCC(C3)O4)c3cnn(C4CCC5(CC4)OCCO5)c3n2)cc1", "values": [
      {"measurement": "% of control", "setting": "[2]", "value": 90, "unit": "%"},
      {"measurement": "% of inhibition", "setting": "[3]", "value": -4, "unit": "%"}
    ]},
    {"smiles": "N#Cc1cccc(-c2c[nH]c3ncnc(N4CCOCC4)c23)c1", "values": [
      {"measurement": "% of control", "setting": "[4]", "value": 100, "unit": "%"}
    ]},
    {"smiles": "Cc1cc([C@@H](C)Nc2ccccc2C(=O)O)c2nc(N3CCOCC3)cc(=O)n2c1", "note": "[AZD-6482]", "values": [
      {"measurement": "% of control", "setting": "[5]", "value": 100, "unit": "%"}
    ]}
  ]
}
